#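 Five concentrations, 48 hours, 96-well plates. GI50: concentration for 50% inhibition of growth. Definition used: TGI = concentration required for complete inhibition of growth.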
# Key:
# Experiment in all cases: inhibition of tumour cell growth, NCI panel, 48 h
# [1] = test system: HCC-2998 colon
# [2] = test system: SF-539 CNS
# [3] = test system: MDA-MB-435
# [4] = test system: HS 578T breast
# [5] = test system: MCF7 breast
# [6] = test system: LOX IMVI melanoma
# [7] = test system: MDA-MB-231 breast
# [8] = test system: SF-268 CNS
# [9] = test system: IGROV1 ovarian
# [10] = test system: 786-0 renal
# [11] = test system: NCI-H226 lung
# [12] = test system: HOP-62 NSCLC
# [13] = test system: NCI-H460 lung
# [14] = test system: ACHN renal
# [15] = test system: K-562 leukemia
# [16] = test system: A498 renal
# [17] = test system: SK-MEL-2 melanoma
# [18] = test system: RPMI-8226 leukemia
# [19] = test system: OVCAR-8 ovarian
# [20] = test system: SW-620 colon
# [21] = test system: SR leukemia
# [22] = test system: KM12 colon
# [23] = test system: RXF 393 renal
# [24] = test system: HCT-15 colon
# [25] = test system: TK-10 renal
# [26] = test system: UACC-62 melanoma
# [27] = test system: OVCAR-5 ovarian
# [28] = test system: PC-3 prostate
# [29] = test system: CCRF-CEM leukemia
# [30] = test system: M14 melanoma
# [31] = test system: UACC-257 melanoma
# [32] = test system: UO-31 renal
# [33] = test system: CAKI-1 renal
# [34] = test system: A549 NSCLC
# [35] = test system: NCI-H23 lung
# [36] = test system: BT-549 breast
# [37] = test system: SK-MEL-5 melanoma
# [38] = test system: EKVX NSCLC
# [39] = test system: NCI-H522 lung
# [40] = test system: MOLT-4 leukemia
# [41] = test system: U251 CNS
# [42] = test system: SF-295 CNS
# [43] = test system: OVCAR-3 ovarian
# [44] = test system: NCI/ADR-RES ovarian
# [45] = test system: HT29 colon
# [46] = test system: SK-OV-3 ovarian
# [47] = test system: SK-MEL-28 melanoma
# [48] = test system: SNB-75 CNS
# [49] = test system: OVCAR-4 ovarian
# [50] = test system: SN12C renal
# [51] = test system: DU-145 prostate
structure (smiles),measurement,setting,value
NC(N)=N/N=C/c1c(-c2cccnc2)nc2sc(Cl)cn12,GI50,[1],14.4 µM
same,TGI,[1],27.5 µM
same,GI50,[2],13.4 µM
same,TGI,[2],26.3 µM
same,GI50,[3],16.6 µM
same,TGI,[3],30.5 µM
same,GI50,[4],22.3 µM
same,TGI,[4],46.6 µM
same,GI50,[5],8.27 µM
same,TGI,[5],> 100 µM
same,GI50,[6],12.4 µM
same,TGI,[6],24.8 µM
same,GI50,[7],7.95 µM
same,TGI,[7],21.9 µM
same,GI50,[8],20.7 µM
same,TGI,[8],52.7 µM
same,GI50,[9],17.5 µM
same,TGI,[9],58.5 µM
same,GI50,[10],17 µM
same,TGI,[10],46.6 µM
same,GI50,[11],13.4 µM
same,TGI,[11],28 µM
same,GI50,[12],18 µM
same,TGI,[12],31.9 µM
same,GI50,[13],61.2 µM
same,TGI,[13],> 100 µM
same,GI50,[14],10.3 µM
same,TGI,[14],21.9 µM
same,GI50,[15],19.1 µM
same,TGI,[15],43.3 µM
same,GI50,[16],20.6 µM
same,TGI,[16],37.6 µM
same,GI50,[17],42.8 µM
same,TGI,[17],> 100 µM
same,GI50,[18],18 µM
same,TGI,[18],42 µM
same,GI50,[19],16.5 µM
same,TGI,[19],38.7 µM
same,GI50,[20],6.13 µM
same,TGI,[20],20.7 µM
same,GI50,[21],17.1 µM
same,TGI,[21],> 100 µM
same,GI50,[22],3.95 µM
same,TGI,[22],14.3 µM
same,GI50,[23],17.2 µM
same,TGI,[23],36.7 µM
same,GI50,[24],14.9 µM
same,TGI,[24],28.1 µM
same,GI50,[25],15.4 µM
same,TGI,[25],29.3 µM
same,GI50,[26],14.1 µM
same,TGI,[26],27.1 µM
same,GI50,[27],12.7 µM
same,TGI,[27],25.3 µM
same,GI50,[28],15.2 µM
same,TGI,[28],28.5 µM
same,GI50,[29],6.66 µM
same,TGI,[29],23.9 µM
same,GI50,[30],16.5 µM
same,TGI,[30],30.1 µM
same,GI50,[31],20.4 µM
same,TGI,[31],40.5 µM
same,GI50,[32],33.8 µM
same,TGI,[32],> 100 µM
same,GI50,[33],20.5 µM
same,TGI,[33],43.4 µM
same,GI50,[34],18.7 µM
same,TGI,[34],40.1 µM
same,GI50,[35],16.1 µM
same,TGI,[35],31.7 µM
same,GI50,[36],16.3 µM
same,TGI,[36],32.4 µM
same,GI50,[37],15.2 µM
same,TGI,[37],28.6 µM
same,GI50,[38],16.7 µM
same,TGI,[38],32.9 µM
same,GI50,[39],30.6 µM
same,TGI,[39],> 100 µM
same,GI50,[40],13.6 µM
same,TGI,[40],31.6 µM
same,GI50,[41],13.3 µM
same,TGI,[41],26.1 µM
same,GI50,[42],13.8 µM
same,TGI,[42],28.1 µM
same,GI50,[43],15.3 µM
same,TGI,[43],30.1 µM
same,GI50,[44],52.2 µM
same,TGI,[44],> 100 µM
CCCc1cn2c(/C=N/N=C(N)N)c(-c3ccc(Cl)c([N+](=O)[O-])c3)nc2s1,TGI,[2],3.31 µM
same,TGI,[3],3.21 µM
same,TGI,[45],2.04 µM
same,TGI,[14],3.06 µM
same,TGI,[46],2.86 µM
same,TGI,[47],3.1 µM
same,TGI,[16],3.2 µM
same,TGI,[21],2.75 µM
same,TGI,[24],3.07 µM
same,TGI,[25],2.91 µM
same,TGI,[26],3.38 µM
same,TGI,[48],3.12 µM
same,TGI,[27],2.89 µM
same,TGI,[28],3.53 µM
same,TGI,[49],2.28 µM
same,TGI,[29],0.375 µM
same,TGI,[50],3.33 µM
same,TGI,[33],3.28 µM
same,TGI,[51],3.15 µM
same,TGI,[36],3.08 µM
same,TGI,[40],0.546 µM
same,TGI,[42],3.1 µM
same,TGI,[44],4.95 µM

# Source: PubChem BioAssay (NCI)
